The subject of the experiment is gastrointestinal motility. Put plainly: Effects on gastrointestinal motility in conscious dog (force transducers implanted on stomach and colon, motor index). Type of experiment: in vivo. The note with it: Canis lupus familiaris, iv, 20 min, about two hours after feeding, motor index for twenty minutes before and after administration; for change in vivo at 0.1 mg/kg: dose 0.1 mg/kg i.v.; for change in vivo at 1 mg/kg: dose 1 mg/kg i.v. As for the experimental part: Under systemical anesthesia, force transducers were chronically implanted to the stomach and the colon of the adult male or female dogs in a direction to measure circular muscle contraction according to the method of Ito et al. (Japanese Journal of Smooth Muscle Research, 13, 33, 1976). A silicone tube chronically attached into jugular vein for intravenous administration of test compounds. After the animal was recovered from the operation, test compounds were administered at about two hours after feeding while gastrointestinal motility was measured. The gastrointestinal motility was indicated as motor index, and the effects of test compounds were estimated by the change of motor index for twenty minutes before and after the administration. […]

[1] abbreviates: colon, read-out: Change of Motor Index (%) Colon.
Where [2] appears, read: stomach, read-out: Change of Motor Index (%) Stomach.

Structures are written as SMILES. Where a name gives a salt, the structure may show the parent alone. Read-outs that look alike come from different tables or passages of the source.

Regarding `COc1cc(N)c(Cl)cc1C(=O)N[C@H]1CCN(CC(=O)O)C[C@H]1OC` (relative stereo) [Example 64, cis-[4-(4-Amino-5-chloro-2-methoxybenzamido)-3-methoxypiperidino]acetic acid], the change in vivo at 0.1 mg/kg by setting is: under setting [1], 234%; under setting [2], 200%.

For the compound `CCOC(=O)CN1[C@@H]2CCC[C@H]1C[C@@H](NC(=O)c1cc(Cl)c(N)cc1OC)C2` [Example 23, Ethyl endo-[3-(4-amino-5-chloro-2-methoxybenzamido)-9-azabicyclo[3.3.1]non-9-yl]acetate], the change in vivo at 1 mg/kg reads like this: under setting [1], 133%; under setting [2], 134%.

As to `CCOC(=O)CCCN1[C@@H]2CCC[C@H]1C[C@@H](NC(=O)c1cc(Cl)c(N)cc1OC)C2` [Example 24, Ethyl endo-4-[3-(4-amino-5-chloro-2-methoxybenzamido)-9-azabicyclo[3.3.1]non-9-yl]butyrate], the change in vivo at 0.1 mg/kg reads like this: under setting [1], 135%; under setting [2], 116%.

For `CCOC(=O)CCCCCN1[C@@H]2CCC[C@H]1C[C@@H](NC(=O)c1cc(Cl)c(N)cc1OC)C2` [Example 25, Ethyl endo-6-[3-(4-amino-5-chloro-2-methoxybenzamido)-9-azabicyclo[3.3.1]non-9-yl]hexanoate], the change in vivo at 1 mg/kg reads like this: under setting [1], 133%; under setting [2], 181%.

As to `CCOC(=O)CCN1[C@@H]2CCC[C@H]1C[C@@H](NC(=O)c1cc(Cl)c(N)cc1OC)C2` [Example 27, Ethyl endo-3-[3-(4-amino-5-chloro-2-methoxybenzamido)-9-azabicyclo[3.3.1]non-9-yl]propionate], the change in vivo at 0.1 mg/kg by setting is: under setting [1], 134%; under setting [2], 113%.

In the case of `CCOC(=O)CCCCN1[C@@H]2CCC[C@H]1C[C@@H](NC(=O)c1cc(Cl)c(N)cc1OC)C2` [Example 28, Ethyl endo-5-[3-(4-amino-5-chloro-2-methoxybenzamido)-9-azabicyclo[3.3.1]non-9-yl]valerate], the change in vivo at 1 mg/kg stood at 164% under setting [1] and 142% under setting [2].

`CCOC(=O)CN1[C@@H]2CC[C@H]1C[C@@H](NC(=O)c1cc(Cl)c(N)cc1OC)C2` [Example 32, Ethyl endo-[3-(4-amino-5-chloro-2-methoxybenzamido)-8-azabicyclo[3.2.1]oct-8-yl]acetate]: the change in vivo at 1 mg/kg under setting [1] was found to be 158% and the change in vivo at 1 mg/kg under setting [2] is 177%.

On to `CCOC(=O)CN1[C@@H]2CC[C@H]1C[C@H](NC(=O)c1cc(Cl)c(N)cc1OC)C2` [Example 33, Ethyl exo-[3-(4-amino-5-chloro-2-methoxybenzamido)-8-azabicyclo[3.2.1]oct-8-yl]acetate], for which the change in vivo at 1 mg/kg was determined as 117% under setting [1] and 147% under setting [2].

For `COc1cc(N)c(Cl)cc1C(=O)N[C@H]1C[C@H]2CCC[C@@H](C1)N2CC(=O)O` [Example 34, endo-[3-(4-Amino-5-chloro-2-methoxybenzamido)-9-azabicyclo[3.3.1]non-9-yl]acetic acid hydrochloride], the change in vivo at 1 mg/kg by setting is: under setting [1], 192%; under setting [2], 187%.

As to `COc1cc(N)c(Cl)cc1C(=O)N[C@H]1C[C@H]2CCC[C@@H](C1)N2CCCC(=O)O` [Example 35, endo-4-[3-(4-Amino-5-chloro-2-methoxybenzamido)-9-azabicyclo[3.3.1]non-9-yl]butyric acid hydrochloride], the change in vivo at 1 mg/kg turned out to be 136% under setting [1] and 187% under setting [2].

For `COc1cc(N)c(Cl)cc1C(=O)N[C@H]1C[C@H]2CCC[C@@H](C1)N2CCCCCC(=O)O` [Example 36, endo-6-[3-(4-Amino-5-chloro-2-methoxybenzamido)-9-azabicyclo[3.3.1]non-9-yl]hexanoic acid hydrochloride], the change in vivo at 1 mg/kg came out at 120% under setting [1] and 196% under setting [2].

Consider `COc1cc(N)c(Cl)cc1C(=O)N[C@H]1C[C@H]2CCC[C@@H](C1)N2CCC(=O)O` [Example 38, endo-3-[3-(4-Amino-5-chloro-2-methoxybenzamido)-9-azabicyclo[3.3.1]non-9-yl]propionic acid hydrochloride], for which the change in vivo at 1 mg/kg under setting [1] is 140% and the change in vivo at 1 mg/kg under setting [2] worked out at 146%.

With `COc1cc(N)c(Cl)cc1C(=O)N[C@H]1C[C@H]2CCC[C@@H](C1)N2CCCCC(=O)O` [Example 39, endo-5-[3-(4-Amino-5-chloro-2-methoxybenzamido)-9-azabicyclo[3.3.1]non-9-yl]valeric acid hydrochloride], the change in vivo at 0.1 mg/kg under setting [1] was found to be 159% and the change in vivo at 0.1 mg/kg under setting [2] is 135%.

`CCOc1cc(N)c(Cl)cc1C(=O)NC1CC2CCCC(C1)N2CC(=O)O` (stereo not drawn) [Example 41, endo-[3-(4-Amino-5-chloro-2-ethoxybenzamido)-9-azabicyclo[3.3.1]non-9-yl]acetic acid hydrochloride]: the change in vivo at 1 mg/kg is, setting by setting: under setting [1], 172%; under setting [2], 118%.

`COc1cc(N)c(Cl)cc1C(=O)NC1CC2CCC(C1)N2CC(=O)O` (stereo not drawn) [Example 43, endo-[3-(4-Amino-5-chloro-2-methoxybenzamido)-8-azabicyclo[3.2.1]oct-8-yl]acetic acid hydrochloride]: the change in vivo at 1 mg/kg runs as follows: under setting [1], 505%; under setting [2], 166%.

In the case of `CCOC(=O)CN1CCC(NC(=O)c2cc(Cl)c(N)cc2OC)CC1` [Example 46, Ethyl [4-(4-amino-5-chloro-2-methoxybenzamido)piperidino]acetate hydrochloride], the change in vivo at 1 mg/kg under setting [1] was determined as 166% and the change in vivo at 1 mg/kg under setting [2] stood at 182%.

Turning to `COc1cc(N)c(Cl)cc1C(=O)NC1CCN(CC(=O)O)CC1` [Example 58, [4-[(4-Amino-5-chloro-2-methoxybenzamido)piperidino]acetic acid hydrochloride], the change in vivo at 0.1 mg/kg under setting [1] is 218% and the change in vivo at 0.1 mg/kg under setting [2] came out at 181%.

As for `COc1cc(N)c(Cl)cc1C(=O)NC1CCN(C(C)C(=O)O)CC1` (stereo not drawn) [Example 63, 2-[4-(4-Amino-5-chloro-2-methoxybenzamido)piperidino]propionic acid], the change in vivo at 1 mg/kg was 157% under setting [1] and 130% under setting [2].

The record behind these values is patent EP0640601B1, “BENZAMIDE DERIVATIVE” (HOKURIKU SEIYAKU CO., LTD., priority 1991, dated 1992).
